Assay results taken from ChEMBL document CHEMBL4627352, “New acrylamide-sulfisoxazole conjugates as dihydropteroate synthase inhibitors” (Bioorg Med Chem, 2020).
≈ marks a conversion by molar mass, not a printed value. Calls of active or inactive are those of the source. The rule behind the calls is not given here.

What was measured:
Geotrichum candidum [1] = test: Inhibition of DHPS in Geotrichum candidum assessed as antifungal activity by measuring inhibition zone at 5 mg/mL incubated for 48 hrs by disk diffusion method
Klebsiella pneumoniae [2] = test: Potency index, ratio of sulfisoxazole MIC to compound MIC for Klebsiella pneumoniae assessed as inhibition of DHPS-mediated bacterial growth incubated for 24 hrs by microbroth dilution method
[3] = test system: Staphylococcus epidermidis; test: Inhibition of DHPS in Staphylococcus epidermidis assessed as antibacterial activity by measuring inhibition of bacterial growth incubated for 24 hrs by microbroth dilution method
Escherichia coli [4] = test: Inhibition of DHPS in Escherichia coli assessed as antibacterial activity by measuring inhibition zone at 5 mg/mL incubated for 24 hrs by disk diffusion method
[5] = test system: Staphylococcus epidermidis; test: Potency index, ratio of sulfisoxazole MIC to compound MIC for Staphylococcus epidermidis assessed as inhibition of DHPS-mediated bacterial growth incubated for 24 hrs by microbroth dilution method
Bacillus subtilis [6] = test: Potency index, ratio of sulfisoxazole MIC to compound MIC for Bacillus subtilis assessed as inhibition of DHPS-mediated bacterial growth incubated for 24 hrs by microbroth dilution method
Aspergillus fumigatus [7] = test: Inhibition of DHPS in Aspergillus fumigatus assessed as antifungal activity by measuring inhibition zone at 5 mg/mL incubated for 48 hrs by disk diffusion method
[8] = test system: Syncephalastrum racemosum; test: Inhibition of DHPS in Syncephalastrum racemosum assessed as antifungal activity by measuring inhibition zone at 5 mg/mL incubated for 48 hrs by disk diffusion method
[9] = test system: Escherichia coli ATCC 25922; test: Inhibition of DHPS in Escherichia coli ATCC 25922 assessed as inhibition of bacterial growth incubated for 24 hrs in presence of folate dependent metabolite, methionine by microbroth dilution method
Bacillus subtilis [10] = test: Inhibition of DHPS in Bacillus subtilis assessed as antibacterial activity by measuring inhibition of bacterial growth incubated for 24 hrs by microbroth dilution method
Aspergillus fumigatus [11] = test: Potency index, ratio of sulfisoxazole MIC to compound MIC for Aspergillus fumigatus assessed as inhibition of DHPS-mediated fungal growth incubated for 48 hrs by microbroth dilution method
Streptococcus pneumoniae [12] = test: Inhibition of DHPS in Streptococcus pneumoniae assessed as antibacterial activity by measuring inhibition of bacterial growth incubated for 24 hrs by microbroth dilution method
Aspergillus fumigatus [13] = test: Inhibition of DHPS in Aspergillus fumigatus assessed as antifungal activity by measuring inhibition of fungal growth incubated for 48 hrs by microbroth dilution method
Proteus vulgaris [14] = test: Inhibition of DHPS in Proteus vulgaris assessed as antibacterial activity by measuring inhibition zone at 5 mg/mL incubated for 24 hrs by disk diffusion method
Proteus vulgaris [15] = test: Inhibition of DHPS in Proteus vulgaris assessed as antibacterial activity by measuring inhibition of bacterial growth incubated for 24 hrs by microbroth dilution method
[16] = test system: Syncephalastrum racemosum; test: Inhibition of DHPS in Syncephalastrum racemosum assessed as antifungal activity by measuring inhibition of fungal growth incubated for 48 hrs by microbroth dilution method
Geotrichum candidum [17] = test: Inhibition of DHPS in Geotrichum candidum assessed as antifungal activity by measuring inhibition of fungal growth incubated for 48 hrs by microbroth dilution method
Streptococcus pneumoniae [18] = test: Inhibition of DHPS in Streptococcus pneumoniae assessed as antibacterial activity by measuring inhibition zone at 5 mg/mL incubated for 24 hrs by disk diffusion method
Geotrichum candidum [19] = test: Potency index, ratio of sulfisoxazole MIC to compound MIC for Geotrichum candidum assessed as inhibition of DHPS-mediated fungal growth incubated for 48 hrs by microbroth dilution method
Klebsiella pneumoniae [20] = test: Inhibition of DHPS in Klebsiella pneumoniae assessed as antibacterial activity by measuring inhibition zone at 5 mg/mL incubated for 24 hrs by disk diffusion method
[21] = test system: Escherichia coli ATCC 25922; test: Inhibition of DHPS in Escherichia coli ATCC 25922 assessed as inhibition of bacterial growth incubated for 24 hrs in presence of folate precursor, pABA by microbroth dilution method
Bacillus subtilis [22] = test: Inhibition of DHPS in Bacillus subtilis assessed as antibacterial activity by measuring inhibition zone at 5 mg/mL incubated for 24 hrs by disk diffusion method
[23] = test system: Syncephalastrum racemosum; test: Potency index, ratio of amphotericin B MIC to compound MIC for Syncephalastrum racemosum assessed as inhibition of DHPS-mediated fungal growth incubated for 48 hrs by microbroth dilution method
[24] = test system: Staphylococcus epidermidis; test: Inhibition of DHPS in Staphylococcus epidermidis assessed as antibacterial activity by measuring inhibition zone at 5 mg/mL incubated for 24 hrs by disk diffusion method
Escherichia coli [25] = test: Inhibition of DHPS in Escherichia coli assessed as antibacterial activity by measuring inhibition of bacterial growth incubated for 24 hrs by microbroth dilution method
Klebsiella pneumoniae [26] = test: Inhibition of DHPS in Klebsiella pneumoniae assessed as antibacterial activity by measuring inhibition of bacterial growth incubated for 24 hrs by microbroth dilution method
Escherichia coli [27] = test: Potency index, ratio of sulfisoxazole MIC to compound MIC for Escherichia coli assessed as inhibition of DHPS-mediated bacterial growth incubated for 24 hrs by microbroth dilution method
Streptococcus pneumoniae [28] = test: Potency index, ratio of sulfisoxazole MIC to compound MIC for Streptococcus pneumoniae assessed as inhibition of DHPS-mediated bacterial growth incubated for 24 hrs by microbroth dilution method

C=CCN/C(S)=C(/C#N)C(=O)Nc1ccc(S(=O)(=O)Nc2onc(C)c2C)cc1
inhibition zone (IZ) (Geotrichum candidum [1]): 25.2 mm | Ratio (Klebsiella pneumoniae [2]): 4 | MIC [3]: 3.9 µg/mL (≈ 9 µM) | inhibition zone (IZ) (Escherichia coli [4]): 21.2 mm | Ratio [5]: 2 | Ratio (Bacillus subtilis [6]): 2 | inhibition zone (IZ) (Aspergillus fumigatus [7]): 22.3 mm | inhibition zone (IZ) [8]: 20.4 mm | inhibition [9]: inactive | MIC (Bacillus subtilis [10]): 0.49 µg/mL (≈ 1.13 µM) | Ratio (Aspergillus fumigatus [11]): 7 | MIC (Streptococcus pneumoniae [12]): 0.98 µg/mL (≈ 2.26 µM) | MIC (Aspergillus fumigatus [13]): 0.49 µg/mL (≈ 1.13 µM) | inhibition zone (IZ) (Proteus vulgaris [14]): 20.1 mm | MIC (Proteus vulgaris [15]): 3.9 µg/mL (≈ 9 µM) | MIC [16]: 3.9 µg/mL (≈ 9 µM) | MIC (Geotrichum candidum [17]): 0.24 µg/mL (≈ 0.554 µM) | inhibition zone (IZ) (Streptococcus pneumoniae [18]): 21.7 mm | Ratio (Geotrichum candidum [19]): 6 | inhibition zone (IZ) (Klebsiella pneumoniae [20]): 24.2 mm | inhibition [21]: inactive | inhibition zone (IZ) (Bacillus subtilis [22]): 23.8 mm | Ratio [23]: 2 | inhibition zone (IZ) [24]: 20.1 mm | MIC (Escherichia coli [25]): 1.95 µg/mL (≈ 4.5 µM) | MIC (Klebsiella pneumoniae [26]): 0.49 µg/mL (≈ 1.13 µM)

CN/C(S[C@@H]1O[C@H](COC(C)=O)[C@@H](OC(C)=O)[C@H](OC(C)=O)[C@H]1OC(C)=O)=C(/C#N)C(=O)Nc1ccc(S(=O)(=O)Nc2onc(C)c2C)cc1
inhibition zone (IZ) (Geotrichum candidum [1]): 21.2 mm | Ratio (Klebsiella pneumoniae [2]): 8 | MIC [3]: 3.9 µg/mL (≈ 5.29 µM) | inhibition zone (IZ) (Escherichia coli [4]): 20.2 mm | Ratio (Escherichia coli [27]): 4 | Ratio [5]: 2 | inhibition zone (IZ) (Aspergillus fumigatus [7]): 19.3 mm | inhibition zone (IZ) [8]: 19.9 mm | inhibition [9]: inactive | MIC (Bacillus subtilis [10]): 0.98 µg/mL (≈ 1.33 µM) | Ratio (Aspergillus fumigatus [11]): 4 to 6 | MIC (Streptococcus pneumoniae [12]): 0.98 µg/mL (≈ 1.33 µM) | MIC (Aspergillus fumigatus [13]): 3.9 µg/mL (≈ 5.29 µM) | inhibition zone (IZ) (Proteus vulgaris [14]): 17.8 mm | MIC (Proteus vulgaris [15]): 7.81 µg/mL (≈ 10.6 µM) | MIC [16]: 3.9 µg/mL (≈ 5.29 µM) | MIC (Geotrichum candidum [17]): 1.95 µg/mL (≈ 2.64 µM) | inhibition zone (IZ) (Streptococcus pneumoniae [18]): 22.2 mm | Ratio (Geotrichum candidum [19]): 3 to 5 | inhibition zone (IZ) (Klebsiella pneumoniae [20]): 22.1 mm | inhibition [21]: inactive | Ratio (Streptococcus pneumoniae [28]): 2 | inhibition zone (IZ) (Bacillus subtilis [22]): 23.4 mm | Ratio [23]: 1 | inhibition zone (IZ) [24]: 20.4 mm | MIC (Escherichia coli [25]): 3.9 µg/mL (≈ 5.29 µM) | MIC (Klebsiella pneumoniae [26]): 0.98 µg/mL (≈ 1.33 µM)
